Converted amounts (≈) assume the structure as drawn.
What was measured:
E. coli [1] = assay: Agar diffusion assay, E. coli; format: cell-based, Escherichia coli
Excerpt: (§1) The encouraging antitumor properties of the OSe compounds motivated us to evaluate their corresponding antimicrobial activities against the C. albicans fungal strain, S. aureus Gram-positive bacteria, and E. coli Gram-negative bacteria. Therefore, we applied the agar diffusion and minimum inhibitory concentration (MIC) methods using clotrimazole antifungal and ampicillin antibacterial drugs as standards.
(§2) The products’ antimicrobial properties were examined according to the previously reported method, via agar well diffusion assay against E. coli, S. aureus, and C. albicans. A microdilution method was also used to record MICs (M), following the previously reported procedure. Experimental details can be found in the Supplementary Materials.
1.1. […]
(§3) 1.1.2. The antimicrobial activity
The antimicrobial activities of the OSe compounds were evaluate d against C. albicans yeast as well as E.
coli gram-negative and S. aureus gram-positive bacteria employing the agar well diffusion assay. […]
5 g, and beef extract 3 g) seeded with the dedicated strain. Incubation lasted for 13 h at 36 0C.
Experiments were replicated three times and the antifungal clotrimazole and antibiotic ampicillin
1.1.3. […]

S. aureus [2] = assay: Agar diffusion assay, S. aureus; format: cell-based, Staphylococcus aureus; set-up: concentration or dose not given beside the values; conditions: ratio of inhibition zone of compound to that of positive control (ampicillin)
Excerpt: as §1
as §2, with “Materials. […]” for “Materials.”
as §3
The antimicrobial activities of the OSe compounds were evaluate d against C. albicans yeast as well as E. coli gram-negative and S. aureus gram-positive bacteria employing the agar well diffusion assay.
(§4) Briefly, a concentration of 1 mM was prepared for each compound by dissolving in DMSO. Paper discs of standard size […] were sterilized in an autoclave and soaked in 9 µL of the test compounds, and placed in the Petri dishes, which in turn contain a nutrient media (agar 9 g, peptone 5 g, and beef extract 3 g) seeded with the dedicated strain. Incubation lasted for 13 h at 36 0C.
Experiments were replicated three times and the antifungal clotrimazole and antibiotic ampicillin […]

C. albicans = assay: Agar diffusion assay, C. albicans; format: cell-based, Candida albicans
E. coli [3] = assay: MIC by microdilution, E. coli; format: cell-based; conditions: Escherichia coli; microdilution method
Excerpt: as §1, §2
as §4, with “0C. […]” for “0C.”

S. aureus [4] = assay: MIC by microdilution, S. aureus; format: cell-based; conditions: Staphylococcus aureus; microdilution method
Excerpt: as §1, §2
as §4, with “0C. […]” for “0C.”

[5] = ABTS radical scavenging assay
Procedure: The antioxidant activities of the OSe compounds were intensively investigated because these are usually the cause of their chemopreventive potency. Their redox activities were evaluated via DPPH and ABTS assays, using ascorbic acid as the standard. We spectrophotometrically measured the antioxidant efficiency of the OSe compounds by their ability to decolorise the DPPH^. and ABTS^. radicals at […] (Figure 2).
The compounds’ antioxidant properties were assessed by in vitro bioassays using DPPH and ABTS, following the reported method. Details are in the Supplementary Materials.
Figure 4 Estimation of the OSe compounds’ redox activities via DPPH and ABTS experiments. All tests are mean ± S.D. ABTS experiment: absorbance was followed at 734 nm for OSe compounds (50 µL, 1 mM in MeOH) and ABTS solution (60 µL). DPPH Absorbance was monitored at 517 nm for OSe compounds (200 µL, 1 mM in MeOH) and DPPH (400 µL) after 30 min. […]
1.1.3.2. The ABTS bioassay
The antioxidant activity of the investigated compounds was assessed using 2,2’-azino-bis(3-ethylbenzothiazoline-6-sulphonic acid (ABTS) method. The radical cation derived from ABTS was prepared by the reaction of 60 mM ABTS solution with 0.3 M manganese dioxide solution in 0.1M phosphate buffer, pH 7. Then, the mixture was shaken, centrifuged, filtered, and the absorbance (Acontrol ) of […]
the resulting green-blue solution (ABTS radical solution) was measured at wavelength 734 nm. Then, […] of 1 mg/ml test compound in phosphate-buffered methanol was added. The absorbance (Atest) was measured. The reduction in color intensity was expressed as % inhibition. The % inhibition for each […]
compound is calculated from the following equation
Inhibition% = (Acontrol-Asample)/(Acontrol)*100
Ascorbic acid (vitamin C) was used as a standard antioxidant (positive control). A blank sample was run […]
without ABTS and using MeOH/phosphate buffer (1:1) instead of the sample. A negative control sample […]
was run with MeOH/phosphate buffer (1:1) instead of a tested compound.

With `Nc1ccc([Se]CC(=O)NOCc2ccccc2)cc1` [Compound 8, 2-((4-Aminophenyl)selanyl)-N-(benzyloxy)acetamide] the “E. coli ZID (inhibition zone diameter)” value (E. coli [1]; 6-mm disks soaked with 20 μM of the OSe agents) was 16 mm, the “E. coli IA% (activity index)” value (E. coli [1]; ratio of inhibition zone of compound to that of positive control (ampicillin)) was 69.6% and the “S. aureus IA% (activity index)” value (S. aureus [2]) was 90.5%. For the same compound, the zone of inhibition at 20 µM (C. albicans; Candida albicans, read-out: C. albicans ZID (inhibition zone diameter)) was 22 mm, the “C. albicans IA% (activity index)” value (C. albicans; ratio of inhibition zone of compound to that of positive control (clotrimazole)) was 91.7% and the MIC (E. coli [3]) was 8 µM (≈ 2.68 µg/mL). The MIC (S. aureus [4]) was 4 µM (≈ 1.34 µg/mL), the “antioxidant (scavenging) activity in the ABTS assay” value ([5]; compounds 50 µL, 1 mM in MeOH, ABTS solution 60 µL, absorbance at 734 nm) was 73.9% and the IC50 ([5]; concentration causing 50% decrease in absorbance, ABTS assay) was 27.24 ± 0.2 µM.

From PMC10059083, “Design, Synthesis, and Biological Evaluation of Novel Hydroxamic Acid-Based Organoselenium Hybrids” (Pharmaceuticals, 2023)
